Activity calls are given as the source filed them. The rule behind the calls is not given here.
System: CCRIS mutagenicity, Ames/micronucleus/aberration tests
Experiment: CCRIS mutagenicity studies
[1] = Test System: AMES SALMONELLA TYPHIMURIUM, Strain/Indicator: TA98, Metabolic Activation: NONE, Method: STANDARD PLATE
[2] = Test System: AMES SALMONELLA TYPHIMURIUM, Strain/Indicator: TA98, Metabolic Activation: RAT, LIVER, S-9, AROCLOR 1254, Method: STANDARD PLATE
[3] = Test System: AMES SALMONELLA TYPHIMURIUM, Strain/Indicator: TA100, Metabolic Activation: NONE, Method: STANDARD PLATE
[4] = Test System: AMES SALMONELLA TYPHIMURIUM, Strain/Indicator: TA100, Metabolic Activation: RAT, LIVER, S-9, AROCLOR 1254, Method: STANDARD PLATE
[5] = Test System: AMES SALMONELLA TYPHIMURIUM, Strain/Indicator: TA1535, Metabolic Activation: NONE, Method: STANDARD PLATE
[6] = Test System: AMES SALMONELLA TYPHIMURIUM, Strain/Indicator: TA1535, Metabolic Activation: RAT, LIVER, S-9, AROCLOR 1254, Method: STANDARD PLATE
[7] = Test System: AMES SALMONELLA TYPHIMURIUM, Strain/Indicator: TA1537, Metabolic Activation: NONE, Method: STANDARD PLATE
[8] = Test System: AMES SALMONELLA TYPHIMURIUM, Strain/Indicator: TA1537, Metabolic Activation: RAT, LIVER, S-9, AROCLOR 1254, Method: STANDARD PLATE

## C/C=C(\C)C(=O)O[C@H]1C[C@@H](OC(C)=O)[C@@]2(C(=O)OC)CO[C@H]3[C@@H](O)[C@@](C)([C@]45O[C@@]4(C)[C@H]4C[C@@H]5O[C@@H]5OC=C[C@@]54O)[C@H]4[C@]1(CO[C@]4(O)C(=O)OC)[C@@H]32
End Point: IN VIVO CHROMOSOMAL ABERRATIONS, Test System: BONE MARROW, Species: MOUSE, Strain/Sex: SWR/J/MALE,FEMALE, Route: ORAL (GAVAGE)
  mutagenic call: inactive; negative
End Point: In vivo chromosomal aberrations, Test System: Bone marrow cells, Species: Mouse, Strain/Sex: Swiss/Male, Route: Oral
  mutagenic call: active; positive (structural changes)

## COCCN(N=O)C(N)=O
Test System: E. COLI B, Strain/Indicator: H/R30R, Metabolic Activation: NONE
  mutagenic call: active; positive
Test System: E. COLI B, Strain/Indicator: HS30R, Metabolic Activation: NONE
  mutagenic call: active; positive

## O=C(O)c1cc(Cl)ccc1Cl
Test System: AMES SALMONELLA TYPHIMURIUM, Strain/Indicator: TA98, Metabolic Activation: NONE, Method: PREINCUBATION
  mutagenic call: inactive; negative
Test System: AMES SALMONELLA TYPHIMURIUM, Strain/Indicator: TA98, Metabolic Activation: RAT LIVER S-9, PCB, Method: PREINCUBATION
  mutagenic call: inactive; negative
Test System: AMES SALMONELLA TYPHIMURIUM, Strain/Indicator: TA100, Metabolic Activation: NONE, Method: PREINCUBATION
  mutagenic call: inactive; negative
Test System: AMES SALMONELLA TYPHIMURIUM, Strain/Indicator: TA100, Metabolic Activation: RAT LIVER S-9, PCB, Method: PREINCUBATION
  mutagenic call: inactive; negative
Test System: AMES SALMONELLA TYPHIMURIUM, Strain/Indicator: TA104, Metabolic Activation: NONE, Method: PREINCUBATION
  mutagenic call: inactive; negative
Test System: AMES SALMONELLA TYPHIMURIUM, Strain/Indicator: TA104, Metabolic Activation: RAT LIVER S-9, PCB, Method: PREINCUBATION
  mutagenic call: inactive; negative
Test System: E.COLI, Strain/Indicator: WP2 UVRA, Metabolic Activation: NONE, Method: PREINCUBATION
  mutagenic call: inactive; negative
Test System: E.COLI, Strain/Indicator: WP2 UVRA, Metabolic Activation: RAT LIVER S-9, PCB, Method: PREINCUBATION
  mutagenic call: inactive; negative

## CN(C)c1ccc(N=Nc2ccc(C=O)cc2)cc1
Test System: AMES SALMONELLA TYPHIMURIUM, Strain/Indicator: TA98, Metabolic Activation: RAT, LIVER, S-9, POLYCHLORINATED BIPHENYLS, Method: PREINCUBATION
  mutagenic call: active; positive
Test System: AMES SALMONELLA TYPHIMURIUM, Strain/Indicator: TA100, Metabolic Activation: RAT, LIVER, S-9, POLYCHLORINATED BIPHENYLS, Method: PREINCUBATION
  mutagenic call: active; positive

## CN(C)c1nc(=O)n(C2CCCCC2)c(=O)n1C
End Point: In vitro chromosomal aberrations, Test System: Chinese hamster ovary (CHO) cells, Metabolic Activation: None
  mutagenic call: active; positive
End Point: In vitro chromosomal aberrations, Test System: Chinese hamster ovary (CHO) cells, Metabolic Activation: S-9
  mutagenic call: inactive; negative

## O=C(O)c1cc(Br)cc2cccnc12
[1]
  mutagenic call: inactive; negative
[2]
  mutagenic call: inactive; negative
[3]
  mutagenic call: inactive; negative
[4]
  mutagenic call: inactive; negative
[5]
  mutagenic call: inactive; negative
[6]
  mutagenic call: inactive; negative
[7]
  mutagenic call: inactive; negative
[8]
  mutagenic call: inactive; negative

## O=[N+]([O-])c1ccc(N=Nc2ccc(N(CCO)CCO)cc2)c([N+](=O)[O-])c1
[1]
  mutagenic call: active; positive
[2]
  mutagenic call: active; positive
[3]
  mutagenic call: active; positive
[4]
  mutagenic call: active; positive
[5]
  mutagenic call: active; positive
[6]
  mutagenic call: active; positive
[7]
  mutagenic call: active; positive
[8]
  mutagenic call: active; positive
Test System: AMES SALMONELLA TYPHIMURIUM, Strain/Indicator: TA1538, Metabolic Activation: NONE, Method: STANDARD PLATE
  mutagenic call: active; positive
Test System: AMES SALMONELLA TYPHIMURIUM, Strain/Indicator: TA1538, Metabolic Activation: RAT, LIVER, S-9, AROCLOR 1254, Method: STANDARD PLATE
  mutagenic call: active; positive
Test System: CHINESE HAMSTER V-79, Strain/Indicator: V-79 (HGPRT)/6-THIOGUANINE, Metabolic Activation: RAT, LIVER, S-9, AROCLOR 1254
  mutagenic call: active; positive
Test System: CHINESE HAMSTER V-79, Strain/Indicator: V-79/6-THIOGUANINE, Metabolic Activation: NONE
  mutagenic call: inactive; negative
Test System: UDS RAT HEPATOCYTES, Strain/Indicator: THY INCORP, Metabolic Activation: NONE, Method: AUTORADIOGRAPHY
  mutagenic call: inactive; negative
